From patent EP0185961A2, “1-Phenyl-imidazole-5-carboxylic acid derivatives, process for their preparation and their use as growth regulators” (HOECHST AKTIENGESELLSCHAFT, priority 1984, dated 1986)

What was measured:
Reispflanzen [1] = assay: Growth inhibition in paddy rice, small plots; conditions: Oryza sativa, 504 h, read-out: Wuchsshemmung (%)
Excerpt: (§4) Reispflanzen werden in Kleinparzellen (2 m x 2 m) angezogen und im Stadium der maximalen Bestockung mit erfindungsgemäßen Verbindungen behandelt. Die Substanzen werden sowohl durch Spritzung appliziert als auch in das Wasser gegeben.
(§5) 3 Wochen nach der Behandlung wird bei allen Pflanzen der Zuwachs gemessen und die Wuchshemmung in % des Zuwachses der Kontrollpflanzen berechnet. Es wird außerdem auf eine mögliche phytotoxische Wirkung der Verbindungen geachtet.
(§6) Die Wuchshemmung wird als prozentualer Wert ermittelt, wobei 100% den Stillstand des Wachstums und 0% ein Wachstum entsprechend dem der unbehandelten Kontrollpflanzen bedeuten.

[2] = tested on: Getreidepflanzen (Weizen, Gerste, Roggen); assay: Phytotoxic effect observed in the cereal growth inhibition test; assay type: in vivo; conditions: cereals; one cell for 2,5 and 1,25 kg/ha
Excerpt: (§1) In Schalenversuchen im Gewächshaus werden junge Getreidepflanzen (Weizen, Gerste, Roggen) im 3-Blattstadium mit erfindungsgemäßen Verbindungen in verschiedenen Wirkstoffkonzentrationen (kg/ha) tropfnaß gespritzt.
(§2) Es wird außerdem die phytotoxische Wirkung der Verbindung beobachtet.

Gerste = assay: Growth inhibition in cereals, greenhouse tray test, sprayed at 3-leaf stage; assay type: in vivo; conditions: % of growth increment of untreated controls, read-out: Wuchsshemmung in % bei Gerste; for pest or weed control at 1250 g/ha: 1,25 kg/ha; for pest or weed control at 2500 g/ha: 2,5 kg/ha
Excerpt: as §1, §2

Weizen = assay: as above; assay type: in vivo; conditions: % of growth increment of untreated controls (100% = growth standstill), read-out: Wuchsshemmung in % bei Weizen; for pest or weed control at 1250 g/ha: 1,25 kg/ha; for pest or weed control at 2500 g/ha: 2,5 kg/ha
Excerpt: (§3) In Schalenversuchen im Gewächshaus werden junge Getreidepflanzen (Weizen, Gerste, Roggen) im 3-Blattstadium mit erfindungsgemäßen Verbindungen in verschiedenen Wirkstoffkonzentrationen (kg/ha) tropfnaß gespritzt. […]

Roggen = assay: as above; assay type: in vivo; conditions: % of growth increment of untreated controls, read-out: Wuchsshemmung in % bei Roggen; for pest or weed control at 1250 g/ha: 1,25 kg/ha; for pest or weed control at 2500 g/ha: 2,5 kg/ha
Excerpt: as §3

Reispflanzen [3] = conditions: in vivo
Excerpt: as §4, §5, §6

Sojabohnen [4] = assay: Growth inhibition in soybeans; conditions: Glycine max, 504 h, read-out: Wuchsshemmung (%)
Excerpt: (§7) Etwa 10 cm große Sojabohnen werden mit den Wirkstoffzubereitungen tropfnaß bespritzt. Nach 3 Wochen wird bonitiert.
as §6

Sojabohnen [5] = conditions: in vivo
Excerpt: as §7, §6

SMILES	pest or weed control at 620 g/ha (Reispflanzen [1]) [%]	pest or weed control at 1250 g/ha (Reispflanzen [1]) [%]	Phytotox. Wirkung [2]	pest or weed control at 1250 g/ha (Gerste) [%]	pest or weed control at 2500 g/ha (Gerste) [%]	pest or weed control at 1250 g/ha (Weizen) [%]	pest or weed control at 2500 g/ha (Weizen) [%]	pest or weed control at 1250 g/ha (Roggen) [%]	pest or weed control at 2500 g/ha (Roggen) [%]	Phytotox. Wirkung (Reispflanzen [3])	pest or weed control at 2500 g/ha (Sojabohnen [4]) [%]	Phytotox. Wirkung (Sojabohnen [5])
CCc1cccc(CC)c1-n1cncc1C(=O)ON=C1CCCCC1 [Beispiel 51]	19	26	keine Schäden	18	37	16	25	20	27	keine Schäden	24	keine Schäden
CCc1cccc(CC)c1-n1cncc1C(=O)NCC(=O)OC [Beispiel 61]	13	20	keine Schäden	19	31	13	23	18	25	keine Schäden	17	keine Schäden
CCc1cccc(CC)c1-n1cncc1C(=O)OC(=O)c1cncn1-c1c(CC)cccc1CC [Beispiel 115]	19	28	keine Schäden	19	38	14	24	24	31	keine Schäden	15	keine Schäden
CCc1cccc(CC)c1-n1cncc1CO [Beispiel 12, 1-(2,6-Diethylphenyl)-5-hydroxymethyl-imidazol]	13	21	keine Schäden	17	33	11	23	17	24	keine Schäden	21	keine Schäden
CCc1cccc(CC)c1-n1cncc1C(=O)NNC(N)=O [Beispiel 70]	14	21	keine Schäden	18	27	12	22	21	25	keine Schäden	19	keine Schäden
CCc1cccc(CC)c1-n1cncc1C=O [Beispiel 13, 1-(2,6-Diethylphenyl)-5-formyl-imidazol]	16	24	keine Schäden	19	37	15	24	19	27	keine Schäden	25	keine Schäden
CCOC(=O)CSC(=O)c1cncn1-c1c(CC)cccc1CC [Beispiel 54]	14	21	keine Schäden	19	33	13	22	18	24	keine Schäden	19	keine Schäden
CCc1cccc(CC)c1-n1cncc1-c1nc(C)no1 [Beispiel 7, 1-(2,6-Diethylphenyl)-5-(3-methyl-1,2,4-oxdiazol-5-yl)-imidazol]	15	24	keine Schäden	19	39	15	24	21	28	keine Schäden	26	keine Schäden
CCc1cccc(CC)c1-n1cncc1C(=O)ON=C(C)C [Beispiel 40]	18	25	keine Schäden	19	38	16	25	21	27	keine Schäden	26	keine Schäden
CCc1cccc(CC)c1-n1cncc1C(=O)NCCO [Beispiel 3, N-(2-Hydroxyethyl)-1-(2,6-diethylphenyl)-imidazol-5-carb-oxyamid]	16	21	keine Schäden	17	35	13	22	20	26	keine Schäden	21	keine Schäden
CCc1cccc(CC)c1-n1cncc1C(=O)n1cncn1 [Beispiel 76]	14	19	keine Schäden	17	27	13	21	15	23	keine Schäden	21	keine Schäden
CCc1cccc(CC)c1-n1cncc1C(=O)ON1C(=O)c2ccccc2C1=O [Beispiel 2, Pthalimido-1-(2,6-diethylphenyl)-imidazol-5-carboxylat]	25	22	keine Schäden	18	37	12	23	21	27	keine Schäden	20	keine Schäden
CCc1cccc(CC)c1-n1cncc1C(=O)NCC(=O)O [Beispiel 60]	13	21	keine Schäden	19	32	13	23	17	24	keine Schäden	21	keine Schäden
